# Earlier results as cited in patent publication EP0385476B2, “Physiologically active polypeptide and DNA” (SHIONOGI & CO., LTD., priority 1989, dated 1999).
# Tested on: chicken rectum
# Details: relative to ANP
substance,measurement,value
porcine brain natriuretic peptide [pBNP],"rectum relaxation activity, times higher than that of ANP",3 to 4 times
